{
  "source": "ChEMBL document CHEMBL5260832",
  "about": "“Hepatoprotective natural triterpenoids” (Eur J Med Chem, 2018)",
  "key": {"[1]": {"organism": "Mus musculus", "test": "Hepatoprotective activity against D-GaIN-induced liver injury mouse model assessed as cell death with increasing cell survival rates at 10 uM relative to control", "type": "functional"}, "[2]": {"system": "Huh-7", "test": "Hepatoprotective activity in human Huh-7 cells assessed as reduction in AST level", "type": "functional", "parameters": "scale not given: the % may be the effect or the level left"}, "[3]": {"system": "Hepatocyte", "test": "Protection against CCL4-induced rat hepatocyte toxicity assessed as reduction in ALT level at 90 uM relative to control", "type": "functional", "parameters": "scale not given: the % may be the effect or the level left"}, "[4]": {"system": "L02", "test": "Protection against D-GalN-induced cell damage in human L02 cells […] assessed as reduction in cell viability […]", "type": "functional, cell-based"}, "[5]": {"organism": "Mus musculus", "test": "Hepatoprotective activity in mouse liver homogenate assessed as inhibition of iron/ascorbate lipid peroxidation at 5.0 mg/mL relative to control", "type": "functional", "parameters": "scale not given: the % may be the effect or the level left"}, "[6]": {"organism": "Mus musculus", "test": "Hepatoprotective activity in CCl4-induced mouse assessed as change in SGPT level (reference value: 6.9 mmol/L)", "type": "functional"}, "[7]": {"organism": "Mus musculus", "test": "Hepatoprotective activity in mouse liver homogenate assessed as inhibition of iron/ascorbate lipid peroxidation at 0.1 mg/mL relative to control", "type": "functional", "parameters": "scale not given: the % may be the effect or the level left"}, "[8]": {"system": "Hepatocyte", "test": "Hepatoprotective activity against CCl4/GaIN-induced cytotoxicity in rat hepatocytes assessed as decrease in GPT level at 1.0 ug/mL relative to control", "type": "functional", "parameters": "scale not given: the % may be the effect or the level left", "settings": "dose 1 µg/ml"}, "[9]": {"test": "Hepatotoxicity in CCl4-induced ICR mouse model assessed as change in SOD level, po measured after 7 days", "type": "toxicity, organism-based", "settings": "in vivo, 168 h, time 7 day"}, "[10]": {"test": "Hepatotoxicity in DMF-induced ICR mouse model assessed as change in GSH-PX level, po measured after 7 days", "type": "toxicity, organism-based", "settings": "in vivo, 168 h, time 7 day"}, "[11]": {"test": "Hepatotoxicity in CCl4-induced ICR mouse model assessed as change in GSH-PX level, po measured after 7 days", "type": "toxicity, organism-based", "settings": "in vivo, 168 h, time 7 day"}, "[12]": {"test": "Hepatotoxicity in DMF-induced ICR mouse model assessed as change in SOD level, po measured after 7 days", "type": "toxicity, organism-based", "settings": "in vivo, 168 h, time 7 day"}, "[13]": {"test": "Hepatotoxicity in CCl4-induced ICR mouse model assessed as change in CAT level, po measured after 7 days", "type": "toxicity, organism-based", "settings": "in vivo, 168 h, time 7 day"}, "[14]": {"test": "Hepatotoxicity in DMF-induced ICR mouse model assessed as change in CAT level, po measured after 7 days", "type": "toxicity, organism-based", "settings": "in vivo, 168 h, time 7 day"}, "[15]": {"system": "HepG2", "test": "Cytoprotective activity against t-BHP induced cell death in human HepG2 cells assessed as cell survival rate at 10 uM relative to control", "type": "functional"}, "[16]": {"organism": "Mus musculus", "test": "Hepatoprotective activity in CCl4-induced toxicity in liver injured mouse assessed as increase in inhibition of liver damage at 50 uM relative to control", "type": "functional", "parameters": "scale not given: the % may be the effect or the level left"}},
  "data": [
    {"smiles": "CC1=CC[C@H]([C@@H](C)[C@H]2CC[C@@]3(C)[C@@H]4CC[C@@H](C(C)(C)O)[C@@]5(CCC(=O)O)C[C@@]45CC[C@@]23C)OC1=O", "values": [
      {"measurement": "Activity", "setting": "[1]", "value": 35.7, "unit": "%"}
    ]},
    {"smiles": "C[C@@H]1CC[C@]2(C(=O)O)CC[C@]3(C)C(=CC[C@@H]4[C@@]5(C)C[C@@H](O)[C@@H](O)C(C)(C)[C@@H]5CC[C@]43C)[C@@H]2[C@]1(C)O", "note": "[EUSCAPHIC ACID]", "values": [
      {"measurement": "Activity", "setting": "[2]", "value": 48.8, "unit": "%"}
    ]},
    {"smiles": "C[C@@H]1O[C@@H](O[C@H]2[C@H](O[C@H]3CC[C@]4(C)[C@H]5CC=C6[C@@H]7CC(C)(C)CC[C@]7(C(=O)O[C@@H]7O[C@H](CO)[C@@H](O)[C@H](O)[C@H]7O[C@@H]7O[C@H](CO)[C@@H](O)[C@H](O)[C@H]7O)[C@H](O)C[C@@]6(C)[C@]5(C)CC[C@H]4C3(C)C)O[C@H](CO)[C@@H](O)[C@@H]2O)[C@H](O)[C@H](O)[C@H]1O", "values": [
      {"measurement": "Activity", "setting": "[3]", "value": 79, "unit": "%"}
    ]},
    {"smiles": "CC(=O)O[C@H]1[C@@H]2O[C@@]3(C(C)(C)O)CC[C@](C)(O3)C2[C@@]2(CO)CC[C@@]34C[C@@]35CC[C@H](O)C(C)(C)C5CC[C@H]4[C@]12C", "note": "(some centres not stated)", "values": [
      {"measurement": "EC50", "setting": "[4]", "value": 55.9, "unit": "µM"}
    ]},
    {"smiles": "CC1(C)CC[C@]2(C(=O)O)CC[C@]3(C)C(=CC[C@@H]4[C@@]5(C)CC[C@H](O)C(C)(C)[C@@H]5CC[C@]43C)[C@@H]2C1", "note": "[OLEANOLIC_ACID]", "values": [
      {"measurement": "Activity", "setting": "[5]", "value": 38.8, "unit": "%"},
      {"measurement": "Activity", "setting": "[6]", "value": 3.64, "unit": "mmol/L"},
      {"measurement": "Activity", "setting": "[7]", "value": 13.7, "unit": "%"}
    ]},
    {"smiles": "CC1(C)CC[C@]2(C(=O)O[C@@H]3O[C@H](CO)[C@@H](O)[C@H](O)[C@H]3O)CC[C@]3(C)C(=CC[C@@H]4[C@@]5(C)CC[C@H](O[C@@H]6O[C@H](C(=O)O)[C@@H](O)[C@H](O)[C@H]6O[C@@H]6O[C@H](CO)[C@@H](O)[C@H](O)[C@H]6O)C(C)(C)[C@@H]5CC[C@]43C)[C@@H]2C1", "note": "[GINSENOSIDE R0]", "values": [
      {"measurement": "Activity", "setting": "[8]", "value": 42, "unit": "%"}
    ]},
    {"smiles": "C[C@@H]1O[C@@H](O[C@H]2[C@H](OC(=O)[C@]34CCC(C)(C)C[C@H]3C3=CC[C@@H]5[C@@]6(C(=O)O)CC[C@H](O)[C@@](C)(C(=O)O)[C@@H]6CC[C@@]5(C)[C@]3(C)CC4)O[C@H](C)[C@H](O)[C@@H]2O)[C@H](O)[C@H](O)[C@H]1O[C@@H]1O[C@H](CO)[C@@H](O[C@@H]2OC[C@@H](O)[C@H](O)[C@H]2O[C@@H]2OC[C@H](O)[C@H](O)[C@H]2O)[C@H](O)[C@H]1O", "values": [
      {"measurement": "Activity", "setting": "[9]", "value": 221.03, "unit": "U/mg"},
      {"measurement": "Activity", "setting": "[10]", "value": 59.91, "unit": "U/mg"},
      {"measurement": "Activity", "setting": "[11]", "value": 69.12, "unit": "U/mg"},
      {"measurement": "Activity", "setting": "[12]", "value": 198.16, "unit": "U/mg"},
      {"measurement": "Activity", "setting": "[13]", "value": 87.1, "unit": "U/mg"},
      {"measurement": "Activity", "setting": "[14]", "value": 84.68, "unit": "U/mg"}
    ]},
    {"smiles": "CC(=O)C[C@@H](C)[C@H]1CC[C@@]2(C)[C@@H]3C(=O)C=C4[C@@H](CC[C@@H](O)C4(C)C)[C@]3(C)CC[C@]12C", "values": [
      {"measurement": "Activity", "setting": "[15]", "value": 56.9, "unit": "%"}
    ]},
    {"smiles": "CC(=O)O[C@H]1[C@@H]2O[C@@]3(C(C)(C)O)CC[C@](C)(O3)C2[C@@]2(CO)CC[C@@]34C[C@@]35CC[C@H](O[C@@H]3OC[C@@H](O)[C@H](O)[C@H]3O)C(C)(C)C5CC[C@H]4[C@]12C", "note": "(some centres not stated)", "values": [
      {"measurement": "EC50", "setting": "[4]", "value": 74.1, "unit": "µM"}
    ]},
    {"smiles": "C[C@H]1[C@H](C)CC[C@]2(C(=O)O)CC[C@]3(C)C(=CC[C@@H]4[C@@]5(C)CC[C@H](O)[C@@](C)(CO)[C@@H]5CC[C@]43C)[C@H]12", "values": [
      {"measurement": "Activity", "setting": "[16]", "value": 58.3, "unit": "%"}
    ]}
  ]
}
